# Target: T1, SMS2 (Homo sapiens, UniProt Q8NHU3)
# T1 construct: CAO, Yu research team, National Protein Scientific Center (Shanghai); supplied by an outside laboratory, not a commercial vendor
# T1 sequence (Q8NHU3 1-365): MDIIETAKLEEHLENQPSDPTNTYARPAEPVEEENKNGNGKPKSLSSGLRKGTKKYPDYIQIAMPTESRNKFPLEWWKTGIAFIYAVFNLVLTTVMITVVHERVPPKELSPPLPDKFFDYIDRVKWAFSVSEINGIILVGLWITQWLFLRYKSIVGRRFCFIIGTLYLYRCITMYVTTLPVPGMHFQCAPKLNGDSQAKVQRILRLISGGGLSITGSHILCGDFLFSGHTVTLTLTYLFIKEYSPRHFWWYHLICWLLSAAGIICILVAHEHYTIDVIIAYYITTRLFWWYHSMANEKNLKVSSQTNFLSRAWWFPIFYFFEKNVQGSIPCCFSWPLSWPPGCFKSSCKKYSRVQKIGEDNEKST
# Assay: SMS2 inhibitory activity in vitro, HPLC fluorescence quantitative detection (C6-NBD-ceramide to C6-NBD-SM)
# Type: biochemical
# Conditions: 1 µM test compound; SMS2 pure enzyme; 37°C, 30 minutes; average of two measurements; read-out: Inhibition rate on SMS2 at C/µM 1
# Description: • 1. Electro-thermostatic water bath, from Shanghai Yiheng Technology Co., Ltd.); • 2. Vortex Mixer, with model ID of XW-80A, from Shanghai Jingke Industrial Co., Ltd.; • 3. […] High Performance Liquid Chromatography Agilent 1100, equipped with a quaternary pump, vacuum degassing, and FLD fluorescence detector, from Agilent Technologies, Palo Alto, CA, USA; • 5. HPLC column COSMOSIL 5C18-MS-II (4.6mm I.D. X 250mm); • 6. […] The organic solvents used in the present disclosure were purchased from Shanghai National Reagent Company, wherein methanol was pure chromatography; water was ultra-pure water which is filtrated by Milli-Q pump, deionized and ultra-filtrated with 0.22 µm membrane; and other biological consumables were purchased from domestic companies; • 8. Preparation of test compound solutions: each test compound was accurately weighed and dissolved in an appropriate volume of DMSO to prepare a 10 mmol/L stock solution. The stock solution was then diluted with an appropriate volume of DMSO to achieve the desired working concentration; • 9. SMS2 pure enzyme, DDM solution and buffer solution were provided by CAO, Yu research team from National Protein Scientific Center (Shanghai).
# 79 µl of the diluted enzyme solution were transferred into a 1.5 mL EP tube, 1 µl of inhibitor DMSO solution were added thereto, vortexing for 15 seconds, followed by standing at room temperature for 5 minutes. 20 µl of a mixed solution of DMPC and C6-NBD-ceramide were added, vortexing for 15 seconds, and incubated at 37°C for 30 minutes. 200 µl of anhydrous ethanol were added to quench the reaction, vortexing for 15 seconds. 200 µl of the reaction solution were taken out and stored at 4°C and avoided light for HPLC detection.
# The peak area values of A(sm) and A(ceramide) in the HPLC chromatogram corresponding to C6-NBD-SM and C6-NBD-Ceramide in the DMSO group and inhibitor group samples were analyzed and recorded, and the inhibition rate of the test compound was calculated according to the following formula. Inhibition rate = (Peak area values of DMSO group−Peak area values of Inhibitor group)/(Peak area values of DMSO group) × 100% [formula]
row,inhibition at 1 µM [%],Compound
1,78,"Cc1cccc(C)c1COc1ccsc1C(=O)Nc1cccnc1 [1-60, 3-(2,6-dimethylbenzyloxy)-N-(pyridin-3-yl)thiophene-2-carboxamide]"
2,80,"COc1cccc(Cl)c1COc1ccsc1C(=O)Nc1cccnc1 [1-63, 3-(2-chloro-6-methoxybenzyloxy)-N-(pyridin-3-yl)thiophene-2-carboxamide]"
3,86,"O=C(Nc1cccnc1)c1sccc1OCc1csc2ccccc12 [1-66, 3-(benzo[b]thiophen-3-ylmethoxy)-N-(pyridin-3-yl)thiophene-2-carboxamide]"
4,67,"O=C(Nc1cccnc1)c1sccc1OCc1c(F)c(F)cc(F)c1F [1-67, 3-(2,3,5,6-tetrafluorobenzyloxy)-N-(pyridin-3-yl)thiophene-2-carboxamide]"
5,95,"O=C(Nc1cccnc1)c1sccc1OCc1ccccc1OCCc1ccccc1 [1-70, 3-(2-(phenylethoxy)benzyloxy)-N-(pyridin-3-yl)thiophene-2-carboxamide]"
6,95,"CCCCCCOc1cc(Cl)ccc1COc1ccsc1C(=O)Nc1cccnc1 [1-71, 3-(4-chloro-2-(hexyloxy)benzyloxy)-N-(pyridin-3-yl)thiophene-2-carboxamide]"
7,90,"CCCCCCCOc1cc(Cl)ccc1COc1ccsc1C(=O)Nc1cccnc1 [1-72, 3-(4-chloro-2-(heptyloxy)benzyloxy)-N-(pyridin-3-yl)thiophene-2-carboxamide]"
8,90,"CCCCCCOc1ccc(Cl)cc1COc1ccsc1C(=O)Nc1cccnc1 [1-73, 3-(5-chloro-2-(hexyloxy)benzyloxy)-N-(pyridin-3-yl)thiophene-2-carboxamide]"
9,98,"CCCCCCCOc1ccc(Cl)cc1COc1ccsc1C(=O)Nc1cccnc1 [1-74, 3-(5-chloro-2-(heptyloxy)benzyloxy)-N-(pyridin-3-yl)thiophene-2-carboxamide]"
10,93,"O=C(Nc1cccnc1)c1sccc1OCc1ccccc1OCCCCCCCl [1-76, 3-(2-(6-chlorohexyloxy)benzyloxy)-N-(pyridin-3-yl)thiophene-2-carboxamide]"
11,97,"CCCCCCOc1c(Cl)cccc1COc1ccsc1C(=O)Nc1cccnc1 [1-80, 3-(3-chloro-2-(hexyloxy)benzyloxy)-N-(pyridin-3-yl)thiophene-2-carboxamide]"
12,73,"CCc1ccccc1COc1ccsc1C(=O)Nc1cccnc1 [1-81, 3-(2-ethylbenzyloxy)-N-(pyridin-3-yl)thiophene-2-carboxamide]"
13,80,"CC(C)Oc1ccccc1COc1ccsc1C(=O)Nc1cccnc1 [1-82, 3-(2-isopropoxybenzyloxy)-N-(pyridin-3-yl)thiophene-2-carboxamide]"
14,63,CCOC(=O)c1ccccc1COc1ccsc1C(=O)Nc1cccnc1 [1-84]
15,73,"O=C(Nc1cccnc1)c1sccc1OCc1ccccc1OC(F)F [1-85, 3-(2-difluoro-methoxybenzyloxy)-N-(pyridin-3-yl)thiophene-2-carboxamide]"
16,86,"O=C(Nc1cccnc1)c1sccc1OCc1ccccc1Br [1-86, 3-(2-bromobenzyloxy)-N-(pyridin-3-yl)thiophene-2-carboxamide]"
17,82,"O=C(Nc1cccnc1)c1sccc1OCc1ccccc1I [1-87, 3-(yloxy)-N-(pyridin-3-yl)thiophene-2-carboxamide]"
18,76,"Cc1ccc(F)cc1COc1ccsc1C(=O)Nc1cccnc1 [1-88, 3-(5-fluoro-2-methylbenzyloxy)-N-(pyridin-3-yl)thiophene-2-carboxamide]"
19,74,"O=C(Nc1cccnc1)c1sccc1OCc1cc(Cl)ccc1Cl [1-89, 3-(2,5-dichlorobenzyloxy)-N-(pyridin-3-yl)thiophene-2-carboxamide]"
20,50,"O=C(Nc1cncc(F)c1)c1sccc1OCc1ccccc1 [1-92, 3-benzyloxy-N-(5-fluoropyridin-3-yl)thiophene-2-carboxamide]"
21,52,"O=C(Nc1cccnc1)c1sccc1OCc1ccccc1-c1ccccc1 [1-94, 3-[(1,1'-Biphenyl-2-yl)methoxy]-N-(pyridin-3-yl)thiophene-2-carboxamide]"
22,80,"O=C(Nc1cccnc1)c1sccc1OCc1cccc(C(F)(F)F)c1 [1-97, 3-(3-trifluoromethylbenzyloxy)-N-(pyridin-3-yl)thiophene-2-carboxamide]"
23,50,"COc1ccc(OC)c(COc2ccsc2C(=O)Nc2cccnc2)c1 [1-98, 3-(2,5-dimethoxybenzyloxy)-N-(pyridin-3-yl)thiophene-2-carboxamide]"
24,60,"O=C(Nc1cccnc1)c1cscc1OCc1ccccc1 [1-100, 4-(benzyloxy)-N-(pyridin-3-yl)thiophene-3-carboxamide]"

row,Compound,inhibition at 1 µM [%]
1,"O=C(Nc1cccnc1)c1sccc1OCc1ccccc1OCCCCCl [1-75, 3-(2-(4-chlorobutoxy)benzyloxy)-N-(pyridin-3-yl)thiophene-2-carboxamide]",97
2,"CCc1ccccc1COc1ccccc1C(=O)Nc1cccnc1 [12-1 (LY93), 2-(2-ethylbenzyloxy)-N-(pyridin-3-yl)benzamide, reference compound]",66

# Same assay, conditions: 10 µM test compound; SMS2 pure enzyme; 37°C, 30 minutes; average of two measurements; read-out: Inhibition rate on SMS2 at C/µM 10
row,inhibition at 10 µM [%],Compound
1,50,"O=C(Nc1ccccn1)c1sccc1OCc1ccccc1 [1-61, 3-benzyloxy-N-(pyridin-2-yl)thiophene-2-carboxamide]"
2,57,"CN(C(=O)c1sccc1OCc1ccccc1)c1cccnc1 [1-62, 3-benzyloxy-N-methyl-(pyridin-3-yl)thiophene-2-carboxamide]"
3,51,"O=C(Nc1cncnc1)c1sccc1OCc1ccccc1 [1-64, 3-benzyloxy-N-(pyrimidin-5-yl)thiophene-2-carboxamide]"
4,61,"O=C(Nc1cncs1)c1sccc1OCc1ccccc1 [1-65, 3-benzyloxy-N-(thiazol-5-yl)thiophene-2-carboxamide]"
5,50,"Cc1ncccc1NC(=O)c1sccc1OCc1ccccc1 [1-68, 3-benzyloxy-N-(2-methylpyridin-3-yl)thiophene-2-carboxamide]"
6,65,"Cc1ccncc1NC(=O)c1sccc1OCc1ccccc1 [1-69, 3-benzyloxy-N-(4-methylpyridin-3-yl)thiophene-2-carboxamide]"
7,65,"O=C(Nc1cccnc1)c1sccc1OCc1cccs1 [1-77, 3-(thiophen-2-ylmethoxy)-N-(pyridin-3-yl)thiophene-2-carboxamide]"
8,59,"O=C(Nc1cccnc1)c1sccc1OCc1ccsc1 [1-78, 3-(thiophen-3-ylmethoxy)-N-(pyridin-3-yl)thiophene-2-carboxamide]"
9,60,"CCCCCCOc1cccc(COc2ccsc2C(=O)Nc2cccnc2)c1 [1-79, 3-(3-(hexyloxy)benzyloxy)-N-(pyridin-3-yl)thiophene-2-carboxamide]"
10,50,"Cc1cncc(NC(=O)c2sccc2OCc2ccccc2)c1 [1-83, 3-benzyloxy-N-(5-methylpyridin-3-yl)thiophene-2-carboxamide]"
11,56,"O=C(Nc1cnccc1Cl)c1sccc1OCc1ccccc1 [1-91, 3-benzyloxy-N-(4-chloropyridin-3-yl)thiophene-2-carboxamide]"
12,50,"CCCOc1ccc(OCCC)c(COc2ccsc2C(=O)Nc2cccnc2)c1 [1-93, 3-(2,5-dipropoxybenzyloxy)-N-(pyridin-3-yl)thiophene-2-carboxamide]"
13,50,CCCCOc1ccsc1C(=O)Nc1cccnc1 [1-95]
14,50,"CCCCCCCCOc1ccsc1C(=O)Nc1cccnc1 [1-96, 3-octyloxy-N-(pyridin-3-yl)thiophene-2-carboxamide]"
15,62,"O=C(Nc1cccnc1)c1sccc1OCC12CC3CC(CC(C3)C1)C2 [1-99, 3-(adamantan-1-ylmethoxy)-N-(pyridin-3-yl)thiophene-2-carboxamide]"
16,23,"O=C(Nc1ccnnc1)c1sccc1OCc1ccccc1 [12-2, 3-benzyloxy-N-(pyridazin-4-yl)thiophene-2-carboxamide]"

# Same assay, conditions: SMS2 pure enzyme
row,Compound,IC50 [nM]
1,"CCc1ccccc1COc1ccccc1C(=O)Nc1cccnc1 [12-1 (LY93), 2-(2-ethylbenzyloxy)-N-(pyridin-3-yl)benzamide, reference compound]",285
